Article PMC6874683, “Pyrrothiogatain acts as an inhibitor of GATA family proteins and inhibits Th2 cell differentiation in vitro” (Scientific Reports, 2019)
“And” between values parts separate entries of the source, which are not always exact repeats. Equal entries are not always repeated.

Assays:
Th2 cytokines = experiment: ELISA of cytokine production, naive CD4+ T cells under Th2 conditions; assay type: cell-based, mouse; conditions: 30 and 80 µM, 5 days
Description: (§1) C57BL/6 mice were purchased from Clea (Clea Japan, Inc., Tokyo, Japan). Total CD4^+ T cells isolated from mouse spleen were prepared using a FITC anti-mouse CD4 antibody (Cat#100510, RM4–5, BioLegend) and anti-FITC-microbeads (Cat#130-097-050, Miltenyi Biotec). Naive CD4^+ T cells (CD44^low, CD62L^high) were prepared using a MojoSort Mouse CD4 T cell Isolation Kit (Cat#480033), BioLegend). Biotinylated anti-CD44 (Cat#103004, IM7) and anti-CD25 antibodies (Cat#102004, PC61) were purchased from BioLegend. […]
The CD4^+ T cells cultured for five days were stimulated using an immobilized anti-TCR-β mAb (3 µg/mL, H57–597, BioLegend) for 16 h, and the culture supernatants were recovered. The amount of cytokines in the recovered supernatants was determined with ELISA using the following antibodies and reagents: anti-IL-4 mAb (Cat#554387, BD Biosciences), biotin-anti-IL-4 mAb (Cat#554390, BD Biosciences), anti-IL-5 mAb (Cat#554393, BD Biosciences), biotin-anti-IL-5 mAb (Cat#554397, BD Biosciences), anti-IFN-γ mAb (Cat#551216, BD Biosciences), biotin-anti-IFN-γ mAb (Cat#554410, BD Biosciences), anti-IL-2 mAb (Cat#554424, BD Biosciences), biotin-anti-IL-2 mAb (Cat#554426, BD Biosciences), streptavidin horseradish peroxidase (Cat#434323, Invitrogen), and TMB peroxidase EIA substrate kit (Cat#1721066, BioRad). […]

Th1 cell differentiation = experiment: Th1 cell differentiation, naive CD4+ T cells under Th1 conditions; assay type: cell-based, mouse; conditions: 80 µM, five days
Description: as §1, with “BioLegend. CD4^+ T cells (7.5 × 10^5) were stimulated using immobilized anti-TCR-β mAb (3 µg/mL, H57–597, BioLegend) plus an anti-CD28 mAb (1.0 µg/mL, cat#40–0281, TONBO Biosciences) for 2 days, and then, the cells were further expanded under similar conditions for an additional 3 days.” for “BioLegend.”
The in vitro differentiated CD4^+ T cells were stimulated using an immobilized anti-TCR-β mAb (3 µg/ml, H57–597, BioLegend) for 6 h in the presence of monensin (2 µM). […] Flow cytometry was performed using a Gallios Flow Cytometer instrument (Beckman Coulter) and a FACS Caliber instrument (BD Biosciences) and the results were analysed using the FlowJo software program (Tree Star, Ashland, OR, USA). […]
(B) Cytokine production induced in the pyrrothiogatain-treated Th1 cells shown in panel (A) was determined by ELISA.

GATA3 = target: T1, GATA3 (Homo sapiens, UniProt P23771); experiment: AlphaScreen DNA-binding assay, GATA3 with GATA consensus DNA
T1 construct: we synthesized the recombinant full-length GATA3 protein with an N-terminal FLAG tag using the wheat cell-free system; made in house; host or cells: wheat cell-free protein synthesis system (WEPRO1240 kit)
T1 sequence (P23771 whole entry, species assumed): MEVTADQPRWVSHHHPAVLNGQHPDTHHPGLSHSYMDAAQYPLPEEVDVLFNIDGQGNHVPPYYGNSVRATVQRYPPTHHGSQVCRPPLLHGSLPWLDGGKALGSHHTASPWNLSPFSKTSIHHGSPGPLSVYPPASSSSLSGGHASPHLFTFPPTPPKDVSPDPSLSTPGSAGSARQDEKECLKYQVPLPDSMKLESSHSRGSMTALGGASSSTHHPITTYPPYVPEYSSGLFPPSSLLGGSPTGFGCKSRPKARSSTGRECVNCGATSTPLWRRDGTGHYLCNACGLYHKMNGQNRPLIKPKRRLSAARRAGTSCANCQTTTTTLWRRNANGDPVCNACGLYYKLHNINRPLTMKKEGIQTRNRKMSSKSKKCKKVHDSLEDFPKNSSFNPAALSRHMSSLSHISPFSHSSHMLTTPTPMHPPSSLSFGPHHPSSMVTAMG
Description: For the protein-DNA binding assay on a 384-well AlphaPlate (Perkin Elmer), 10 μL of bait protein mixture containing 1 µL FLAG-tagged protein in AlphaScreen Buffer (100 mM Tris-HCl (pH 8.0), 150 mM NaCl, 0.1% Tween 20, and 1 mg/mL BSA) and 5 µL biotinylated oligonucleotide (0–10 µM final concentration) in AlphaScreen Buffer were dispended into the AlphaPlate. Then, the plate was incubated at 26 °C for 1 h. After incubation, 10 μL of the detection mixture containing 0.4 µg/mL Anti-DYKDDDDK antibody (1E6, Wako), 0.1 μL streptavidin-conjugated AlphaScreen donor beads, and 0.1 μL protein A-conjugated AlphaScreen acceptor beads in AlphaScreen Buffer was mixed and incubated at 26 °C for 1 h, and then, the AlphaScreen signal was detected using an EnVision device with the AlphaScreen signal detection program (PerkinElmer).
For the AlphaScreen-based chemical library screening, we used a diverse set of 9,600 synthesized chemicals established by the Drug Discovery Initiative (The University of Tokyo, Tokyo, Japan). All chemical compounds (10 mM) were dissolved in DMSO, and were pre-dispensed into a 384-well Alphaplate (250 nL/well). […] The AlphaScreen signal was detected using an EnVision device with the AlphaScreen signal detection program (PerkinElmer). […]

## Cc1ccc(C)n1-c1ccsc1C(=O)O [Pyrrothiogatain, 3-(2,5-dimethyl-1H-pyrrol-1-yl)thiophene-2-carboxylic acid]
Th2 cytokines
  Production of IL-4, IL-5 and IL-13 (ELISA): Decreased
Th1 cell differentiation
  Generation of IFN-γ and IL-2 producing Th1 cells: modestly increased
GATA3; AlphaScreen, pyrrothiogatain 0 to 200 µM
  IC50: ~50 µM and 54.7 µM
GATA3; second screen, 0 to 10 µM
  Inhibition of GATA3–DNA binding in the second screen: specifically inhibited
